Data from US8546440B2, “Substituted bicyclic imidazole derivatives as gamma secretase modulators” (Janssen Pharmaceuticals, Inc., priority 2008, dated 2013).

What was measured:
[1] = test system: Aβtotal; test: Screening for γ-secretase-modulating activity, Method 1: Aβtotal sandwich ELISA in supernatant of SKNBE2 cells carrying APP 695 wild type (Tables 12a, 12b); type: cell-based
Procedure: (§1) Screening was carried out using SKNBE2 cells carrying the APP 695—wild type, grown in Dulbecco's Modified Eagle's Medium/Nutrient mixture F-12 (DMEM/NUT-mix F-12) (HAM) provided by Gibco (cat no. 31330-38) containing 5% Serum/Fe supplemented with 1% non-essential amino acids. Cells were grown to near confluency.
(§2) The screening was performed using the assay as described in Citron et al (1997) Nature Medicine 3: 67. Briefly, cells were plated in a 96-well plate at about 10^5 cells/ml one day prior to addition of compounds. Compounds were added to the cells in Ultraculture (Lonza, BE12-725F) supplemented with 1% glutamine (Invitrogen, 25030-024) for 18 hours. The media were assayed by two sandwich ELISAs, for Aβ42 and Aβtotal. Toxicity of the compounds was assayed by WST-1 cell proliferation reagent (Roche, 1 644 807) according to the manufacturer's protocol.
To quantify the amount of Aβtotal in the cell supernatant, samples and standards were added to a 6E10-coated plate. The plate was allowed to incubate overnight at 4° C. in order to allow formation of the antibody-amyloid complex. Following this incubation and subsequent wash steps a selective anti-Aβ-antibody conjugate (biotinylated 4G8) was added and incubated for a minimum of 1 hour in order to allow formation of the antibody-Amyloid-antibody-complex. After incubation and appropriate wash steps, a Streptavidine-Peroxidase-Conjugate was added, followed 30 minutes later by an addition of Quanta Blu fluorogenic peroxidase substrate according to the manufacturer's instructions (Pierce Corp., Rockford, Ill.).
(§3) To obtain the values reported in Table 12a, the sigmoidal dose response curves were analysed by computerised curve-fitting, with percent of inhibition plotted against compound concentration. A 4-parameter equation (model 205) in XLfit was used to determine the IC50. The top and the bottom of the curve were fixed to 100 and 0, respectively, and the hill slope was fixed to 1. The IC50 represents the concentration of a compound that is required for inhibiting a biological effect by 50% (Here, it is the concentration where Aβ peptide level is reduced by 50%).
(§4) To obtain the values reported in Table 12b, the data are calculated as percentage of the maximum amount of amyloid Beta 42 measured in the absence of the test compound. The sigmoidal dose response curves were analyzed using non-linear regression analysis with percentage of the control plotted against the log concentration of the compound. A 4-parameter equation was used to determine the IC50. The values reported in Table 12b are averaged IC50 values.

[2] = test system: Aβ42; test: Screening for γ-secretase-modulating activity, Method 1: Aβ42 sandwich ELISA in supernatant of SKNBE2 cells carrying APP 695 wild type (Tables 12a, 12b); type: cell-based
Procedure: as §1, §2
To quantify the amount of Aβ42 in the cell supernatant, commercially available Enzyme-Linked-Immunosorbent-Assay (ELISA) kits were used (Innotest® β-Amyloid(1-42), Innogenetics N.V., Ghent, Belgium). The Aβ42 ELISA was performed essentially according to the manufacturer's protocol. Briefly, the standards (dilutions of synthetic Aβ1-42) were prepared in polypropylene Eppendorf with final concentrations of 8000 down to 3.9 pg/ml (1/2 dilution step). Samples, standards and blanks (100 μl) were added to the anti-Aβ42-coated plate supplied with the kit (the capture antibody selectively recognizes the C-terminal end of the antigen). The plate was allowed to incubate 3 h at 25° C. in order to allow formation of the antibody-amyloid complex. Following this incubation and subsequent wash steps a selective anti-Aβ-antibody conjugate (biotinylated 3D6) was added and incubated for a minimum of 1 hour in order to allow formation of the antibody-Amyloid-antibody-complex. After incubation and appropriate wash steps, a Streptavidine-Peroxidase-Conjugate was added, followed 30 minutes later by an addition of 3,3′,5,5′-tetramethylbenzidine (TMB)/peroxide mixture, resulting in the conversion of the substrate into a coloured product. This reaction was stopped by the addition of sulfuric acid (0.9 N) and the colour intensity was measured by means of photometry with an ELISA-reader with a 450 nm filter.
as §3, §4

[3] = Homo sapiens, Method 1, Table 12a, SKNBE2 cells carrying APP 695 wild type, compounds 18 hours, ELISA, curve top and bottom fixed to 100 and 0, hill slope 1
[4] = Homo sapiens, Table 12b, Method 1, SKNBE2 cells carrying APP 695 wild type, cell supernatant ELISA, averaged IC50 values
[5] = Homo sapiens, Table 12b, Method 1, SKNBE2 cells carrying APP 695 wild type, cell supernatant ELISA, averaged IC50 values, percentage of control vs log concentration
[6] = Table 12b, Method 1, SKNBE2 cells carrying APP 695 wild type, cell supernatant ELISA, averaged IC50 values
[7] = Table 12b, Method 1, SKNBE2 cells carrying APP 695 wild type, cell supernatant ELISA, averaged IC50 values, percentage of control vs log concentration
[8] = Method 1, Table 12a, SKNBE2 cells carrying APP 695 wild type, compounds 18 hours, ELISA, curve top and bottom fixed to 100 and 0, hill slope 1

Row | Compound | IC50 [1, 3] | IC50 [1, 4] | IC50 [2, 3] | IC50 [2, 5] | IC50 [1, 6] | IC50 [2, 7] | IC50 [1, 8] | IC50 [2, 8]
1 | COc1ccc(-c2cn3cccc(Nc4ccc(-n5cnc(C)c5)c(OC)c4)c3n2)c(OC)c1 [Compound 37] | > 10000 nM | > 10000 nM | 190 nM | 174 nM | – | – | – | –
2 | COc1cc(Nc2cccn3cc(CN4CCOCC4)nc23)ccc1-n1cnc(C)c1 [Compound 56] | > 10000 nM | > 10000 nM | 601 nM | 204 nM | – | – | – | –
3 | COc1cc(Nc2cccn3cc(COC(C)C)nc23)ccc1-n1cnc(C)c1 [Compound 54] | > 3000 nM | > 3020 nM | 70 nM | 68 nM | – | – | – | –
4 | COc1cc(Nc2nc(Br)cn3cc(-c4ccc(F)cc4C)nc23)ccc1-n1cnc(C)n1 [Compound 177] | – | > 3020 nM | – | 234 nM | – | – | – | –
5 | COc1cc(Nc2cccn3cc(COc4ccc(F)cc4)nc23)ccc1-n1cnc(C)c1 [Compound 28] | > 1000 nM | > 3020 nM | 20 nM | 18 nM | – | – | – | –
6 | COc1cccc(-c2nc3c(Nc4ccc(-n5cnc(C)c5)cc4)cccn3c2C)c1 [Compound 64] | > 3000 nM | > 3020 nM | 13 nM | 17 nM | – | – | – | –
7 | COc1cc(Nc2cccn3cc(-c4ccc5ncn(C)c5c4)nc23)ccc1-n1cnc(C)c1 [Compound 44] | – | > 3020 nM | – | 617 nM | – | – | – | –
8 | COc1cc(Nc2cccn3cc(-c4ccccc4C(F)(F)F)nc23)ccc1-n1cnc(C)c1 [Compound 47] | > 3000 nM | > 3020 nM | 31 nM | 31 nM | – | – | – | –
9 | COc1cc(Nc2cccn3c(Cl)c(CC4CCCCC4)nc23)ccc1-n1cnc(C)c1 [Compound 53] | – | > 3020 nM | – | 27 nM | – | – | – | –
10 | Cc1ncn(-c2ccc(Nc3cccn4cc(-c5ccc(F)cc5C)nc34)cc2F)n1 [Compound 91] | – | 18600 nM | – | 72 nM | – | – | – | –
11 | COc1cc(Nc2cccn3cc(-c4ccccc4)nc23)ccc1-n1cnc(C)c1 [Compound 12] | > 3000 nM | > 3020 nM | 64 nM | 55 nM | – | – | – | –
12 | Cc1ncn(-c2ccc(Nc3cccn4cc(-c5ccccc5C)nc34)nc2)n1 [Compound 82] | – | – | – | – | > 3020 nM | 562 nM | – | –
13 | COc1cc(Nc2cccn3cc(C4CC4)nc23)ccc1-n1cnc(C)c1 [Compound 116] | – | > 3020 nM | – | 295 nM | – | – | – | –
14 | COc1cc(Nc2cccn3cc(-c4cccc(Cl)c4)nc23)ccc1-n1cnc(C)c1 [Compound 16] | > 3000 nM | > 3020 nM | 58 nM | 49 nM | – | – | – | –
15 | COc1cccc(-c2nc3c(Nc4ccc(-n5ccnc5C)cc4)cccn3c2C)c1 [Compound 65] | 27200 nM | 17800 nM | 782 nM | 661 nM | – | – | – | –
16 | CCc1c(-c2ccc(F)cc2)nc2c(Nc3ccc(-n4cnc(C)c4)c(OC)c3)cccn12 [Compound 23] | – | – | – | – | > 3020 nM | 22 nM | > 3000 nM | 25 nM
17 | Cc1ncn(-c2ccc(Nc3cccn4c(C)c(-c5ccccc5Cl)nc34)c(F)c2)n1 [Compound 133] | – | > 3020 nM | – | 468 nM | – | – | – | –

Row | Compound | IC50 [1, 3] | IC50 [1, 4] | IC50 [2, 3] | IC50 [2, 5] | IC50 [1, 6] | IC50 [2, 7] | IC50 [1, 8] | IC50 [2, 8]
18 | COc1cc(Nc2cccn3c(-c4cccc(-c5ccccc5)c4)cnc23)ccc1-n1cnc(C)c1 [Compound 61] | > 10000 nM | > 10000 nM | 423 nM | 437 nM | – | – | – | –
19 | COc1cc(Nc2cccn3c(Br)c(-c4ccc(F)cc4)nc23)ccc1-n1cnc(C)c1 [Compound 22] | > 3000 nM | > 3020 nM | 113 nM | 112 nM | – | – | – | –
20 | COc1cc(Nc2cccn3cc(-c4ccccc4F)nc23)ccc1-n1cnc(C)c1 [Compound 88] | > 3000 nM | > 10000 nM | 184 nM | 174 nM | – | – | – | –
21 | CCCCc1nc2c(Nc3ccc(-n4cnc(C)c4)c(OC)c3)cccn2c1CCC [Compound 11] | – | – | – | – | > 3020 nM | 35 nM | > 3000 nM | 39 nM
22 | COc1cc(Nc2cccn3cc(-c4ccc(F)cc4)nc23)ccc1-n1ccnc1C [Compound 21] | > 5000 nM | > 5010 nM | 263 nM | 204 nM | – | – | – | –
23 | Cc1ncn(-c2ccc(Nc3cccn4cc(-c5cc(C(F)(F)F)ccc5C)nc34)cn2)n1 [Compound 84] | – | – | – | – | > 3020 nM | 115 nM | – | –
24 | Cc1cc(F)ccc1-c1cn2cccc(Nc3ccc(-n4ncnc4C)c(F)c3)c2n1 [Compound 131] | – | > 10000 nM | – | 245 nM | – | – | – | –
25 | CCc1cn2cc(C(F)(F)F)cc(Nc3ccc(-n4cnc(C)n4)c(OC)c3)c2n1 [Compound 153] | – | > 3020 nM | – | 1900 nM | – | – | – | –
26 | COc1cc(Nc2cccn3ccnc23)ccc1-n1cnc(C)c1 [Compound 49] | 10000 nM | > 10000 nM | 305 nM | 407 nM | – | – | – | –
27 | COc1cc(Nc2cccn3cc(-c4cccnc4)nc23)ccc1-n1cnc(C)c1 [Compound 42] | > 10000 nM | > 10000 nM | 430 nM | 427 nM | – | – | – | –
28 | COc1cc(Nc2cc(C(F)(F)F)cn3cc(COc4ccc(F)cc4)nc23)ccc1-n1cnc(C)n1 [Compound 147] | – | > 3020 nM | – | 42 nM | – | – | – | –
29 | Cc1ccc(C(F)(F)F)cc1-c1cn2cccc(Nc3ccc(-n4ncnc4C)cc3)c2n1 [Compound 75] | – | > 3020 nM | – | 126 nM | – | – | – | –
30 | COc1cc(Nc2cc(C(F)(F)F)cn3cc(CO)nc23)ccc1-n1cnc(C)n1 [Compound 152] | – | > 3020 nM | – | 1780 nM | – | – | – | –
31 | COc1cc(Nc2cc(C(F)(F)F)cn3cc(C(=O)O)nc23)ccc1-n1cnc(C)c1 [Compound 156] | – | – | – | – | > 3020 nM | > 3020 nM | – | –
32 | CCCCc1cn2cccc(Nc3ccc(-n4cnc(C)c4)c(OC)c3)c2n1 [Compound 51] | – | – | – | – | > 3020 nM | 38 nM | > 3000 nM | 39 nM
33 | COc1cccc(-c2nc3c(Nc4ccc(-n5cnc(C)c5)c(F)c4)cccn3c2C)c1 [Compound 66] | – | – | – | 76 nM | – | – | – | –
